Laboratory results reported in patent publication US4820716A, “7-(1-Pyrrolidinyl)-quinolonecarboxylic acid derivatives” (Bayer Aktiengesellschaft, priority 1986, dated 1989).
≈ marks a conversion by molar mass, not a printed value. Read-outs that look alike come from different tables or passages of the source.

Legend:
Assay in all cases: MIC, agar dilution test (multipoint inoculator)
Format in all cases: cell-based
Proteus vulg. = tested on: Proteus vulg.
Description: (§1) *Agar dilution test (multipoint inoculator) Isosensitest medium pH 7.2

Strepto. faecalis = conditions: Isosensitest medium pH 7.2
Description: as §1

Proteus morg. = conditions: Isosensitest medium pH 7.2
Description: as §1

Staph. aureus = conditions: Staphylococcus aureus, Isosensitest medium pH 7.2
Description: as §1

Psdm. aeruginosa = conditions: Pseudomonas aeruginosa, Isosensitest medium pH 7.2
Description: as §1

E. coli = conditions: Escherichia coli, Isosensitest medium pH 7.2
Description: as §1

Proteus mir. = conditions: Isosensitest medium pH 7.2
Description: as §1

Providencia stuartei = tested on: Providencia stuartei
Description: as §1

Serratia marc. = conditions: strain 16040, Isosensitest medium pH 7.2
Description: as §1

Klebsiella pneum. = tested on: Klebsiella pneum.
Description: as §1

[1] = strain 1017, Isosensitest medium pH 7.2, read-out: MIC
[2] = pH 7.2, strain 455/7, read-out: MIC
[3] = pH 7.2, strain Neumann, read-out: MIC
[4] = pH 7.2, strain 8175, read-out: MIC
[5] = pH 7.2, strain 8223, read-out: MIC
[6] = pH 7.2, strain 12012, Isosensitest medium pH 7.2
[7] = pH 7.2, strain 12052, Isosensitest medium pH 7.2
[8] = pH 7.2, strain 57USA, Isosensitest medium pH 7.2, read-out: MIC
[9] = pH 7.2, strain 63, Isosensitest medium pH 7.2, read-out: MIC
[10] = pH 7.2, strain 6179, Isosensitest medium pH 7.2, read-out: MIC
[11] = pH 7.2, strain 6318, Isosensitest medium pH 7.2, read-out: MIC
[12] = pH 7.2, strain 8085, Isosensitest medium pH 7.2, read-out: MIC

## O=C(O)c1cn(C2CC2)c2cc(N3CCC(O)C3)c(F)cc2c1=O (racemic) [Example 1, 1-cyclopropyl-6-fluoro-1,4-dihydro-7-(3-hydroxy-1-pyrrolidinyl)-4-oxo-3-quinolinecarboxylic acid]
Proteus vulg.; [1]
  MIC: ≤ 0.015 µg/mL
Strepto. faecalis; pH 7.2, strain 9790
  MIC: 0.125 µg/mL (≈ 0.376 µM)
Strepto. faecalis; pH 7.2, strain 27101
  MIC: 0.125 µg/mL (≈ 0.376 µM)
Proteus morg.; strain 932, read-out: MIC
  MIC: ≤ 0.015 µg/mL
Proteus morg.; strain 11006
  MIC: ≤ 0.015 µg/mL
Staph. aureus; pH 7.2, strain 133
  MIC: ≤ 0.015 µg/mL
Staph. aureus; pH 7.2, strain 1756
  MIC: ≤ 0.015 µg/mL
Staph. aureus; pH 7.2, strain FK422
  MIC: ≤ 0.015 µg/mL
Psdm. aeruginosa; pH 7.2, strain Ellsworth
  MIC: 0.125 µg/mL (≈ 0.376 µM)
Psdm. aeruginosa; pH 7.2, strain Walter
  MIC: 1 µg/mL (≈ 3.01 µM)
E. coli; [2]
  MIC: 32 µg/mL (≈ 96.3 µM)
E. coli; pH 7.2, strain 4418
  MIC: < 0.015 µg/mL
E. coli; pH 7.2, strain A261
  MIC: < 0.015 µg/mL
E. coli; [3]
  MIC: ≤ 0.015 µg/mL
E. coli; pH 7.2, strain T7
  MIC: < 0.015 µg/mL
Proteus mir.; [4]
  MIC: 0.06 µg/mL (≈ 0.181 µM)
Proteus mir.; [5]
  MIC: 2 µg/mL (≈ 6.02 µM)
Providencia stuartei; [6]
  MIC: ≤ 0.015 µg/mL
Providencia stuartei; [7]
  MIC: 32 µg/mL (≈ 96.3 µM)
Serratia marc.
  MIC: 32 µg/mL (≈ 96.3 µM)
Klebsiella pneum.; [8]
  MIC: 0.125 µg/mL (≈ 0.376 µM)
Klebsiella pneum.; [9]
  MIC: < 0.015 µg/mL
Klebsiella pneum.; [10]
  MIC: 0.125 µg/mL (≈ 0.376 µM)
Klebsiella pneum.; [11]
  MIC: 0.06 µg/mL (≈ 0.181 µM)
Klebsiella pneum.; [12]
  MIC: ≤ 0.015 µg/mL

## O=C(O)c1cn(C2CC2)c2cc(N3CCNCC3)c(F)cc2c1=O [Ciprofloxacin, 1-cyclopropyl-6-fluoro-1,4-dihydro-4-oxo-7-(1-piperazinyl)-3-quinolinecarboxylic acid, reference compound]
Proteus vulg.; pH 7.2
  MIC: ≤ 0.015 µg/mL
Strepto. faecalis; pH 7.2, strain 9790
  MIC: 0.5 µg/mL (≈ 1.51 µM)
Strepto. faecalis; pH 7.2, strain 27101
  MIC: 0.25 µg/mL (≈ 0.754 µM)
Proteus morg.; pH 7.2, strain 932
  MIC: < 0.015 µg/mL
Proteus morg.; pH 7.2, strain 11006
  MIC: ≤ 0.015 µg/mL
Staph. aureus; pH 7.2, strain 133
  MIC: 0.25 µg/mL (≈ 0.754 µM)
Staph. aureus; pH 7.2, strain 1756
  MIC: 0.25 µg/mL (≈ 0.754 µM)
Staph. aureus; pH 7.2, strain FK422
  MIC: 0.5 µg/mL (≈ 1.51 µM)
Psdm. aeruginosa; pH 7.2, strain Ellsworth
  MIC: 0.06 µg/mL (≈ 0.181 µM)
Psdm. aeruginosa; pH 7.2, strain Walter
  MIC: 0.5 µg/mL (≈ 1.51 µM)
E. coli; [2]
  MIC: 1 µg/mL (≈ 3.02 µM)
E. coli; pH 7.2, strain 4418, read-out: MIC
  MIC: ≤ 0.015 µg/mL
E. coli; pH 7.2, strain A261, read-out: MIC
  MIC: ≤ 0.015 µg/mL
E. coli; [3]
  MIC: ≤ 0.015 µg/mL
E. coli; pH 7.2, strain T7, read-out: MIC
  MIC: ≤ 0.015 µg/mL
Proteus mir.; pH 7.2, strain 8175
  MIC: 0.06 µg/mL (≈ 0.181 µM)
Proteus mir.; pH 7.2, strain 8223
  MIC: 4 µg/mL (≈ 12.1 µM)
Providencia stuartei; [6]
  MIC: ≤ 0.015 µg/mL
Providencia stuartei; [7]
  MIC: 16 µg/mL (≈ 48.3 µM)
Serratia marc.
  MIC: 8 µg/mL (≈ 24.1 µM)
Klebsiella pneum.; pH 7.2, strain 57USA, Isosensitest medium pH 7.2
  MIC: ≤ 0.015 µg/mL
Klebsiella pneum.; pH 7.2, strain 63, Isosensitest medium pH 7.2
  MIC: 0.03 µg/mL (≈ 0.0905 µM)
Klebsiella pneum.; pH 7.2, strain 6318, Isosensitest medium pH 7.2
  MIC: 0.06 µg/mL (≈ 0.181 µM)
Klebsiella pneum.; pH 7.2, strain 8085, Isosensitest medium pH 7.2
  MIC: ≤ 0.015 µg/mL

## O=C(O)c1cn(C2CC2)c2c(Cl)c(N3CCC(O)C3)c(F)cc2c1=O (centres unmarked) [Example 3, 8-chloro-1-cyclopropyl-7-fluoro-1,4-dihydro-7-(3-hydroxy-1-pyrrolidinyl)-4-oxo-3-quinolinecarboxylic acid]
Proteus vulg.; [1]
  MIC: ≤ 0.015 µg/mL
Strepto. faecalis; pH 7.2, strain 9790
  MIC: ≤ 0.015 µg/mL
Strepto. faecalis; pH 7.2, strain 27101
  MIC: ≤ 0.015 µg/mL
Proteus morg.; strain 932, read-out: MIC
  MIC: ≤ 0.015 µg/mL
Proteus morg.; strain 11006
  MIC: ≤ 0.015 µg/mL
Staph. aureus; pH 7.2, strain 133
  MIC: ≤ 0.015 µg/mL
Staph. aureus; pH 7.2, strain 1756
  MIC: ≤ 0.015 µg/mL
Staph. aureus; pH 7.2, strain FK422
  MIC: ≤ 0.015 µg/mL
Psdm. aeruginosa; pH 7.2, strain Ellsworth
  MIC: ≤ 0.015 µg/mL
Psdm. aeruginosa; pH 7.2, strain Walter
  MIC: 0.25 µg/mL (≈ 0.682 µM)
E. coli; [2]
  MIC: 0.25 µg/mL (≈ 0.682 µM)
E. coli; pH 7.2, strain 4418
  MIC: ≤ 0.015 µg/mL
E. coli; pH 7.2, strain A261
  MIC: ≤ 0.015 µg/mL
E. coli; [3]
  MIC: ≤ 0.015 µg/mL
E. coli; pH 7.2, strain T7
  MIC: ≤ 0.015 µg/mL
Proteus mir.; [4]
  MIC: ≤ 0.015 µg/mL
Proteus mir.; [5]
  MIC: 0.06 µg/mL (≈ 0.164 µM)
Providencia stuartei; [6]
  MIC: ≤ 0.015 µg/mL
Providencia stuartei; [7]
  MIC: 1 µg/mL (≈ 2.73 µM)
Serratia marc.
  MIC: 1 µg/mL (≈ 2.73 µM)
Klebsiella pneum.; [8]
  MIC: ≤ 0.015 µg/mL
Klebsiella pneum.; [9]
  MIC: ≤ 0.015 µg/mL
Klebsiella pneum.; [10]
  MIC: < 0.015 µg/mL
Klebsiella pneum.; [11]
  MIC: ≤ 0.015 µg/mL
Klebsiella pneum.; [12]
  MIC: ≤ 0.015 µg/mL
